Assay results taken from patent publication US20230172950A1 (priority 2020, published 2023).

Key:
[1] = in vivo; cited from earlier work
Splenocytes = experiment: Ex vivo splenocyte incubation (Study 24), viability by flow cytometry; assay type: cell-based; details: concentrations between 100 uM up to 500 uM
Experimental: (§1) The profound in vivo activity that we observe in naïve mice and in cancer models must be mediated through the mobilized supercharged Natural Killer T cells, T cells and dendritic cells after AVM0703 HED 6 mg/kg and higher.
Splenocytes were cultured for 16 hours prior to assay execution.

Whole Blood = experiment: Ex vivo whole blood incubation (Study 6), immune cell counts; assay type: cell-based; details: concentrations between 100 uM up to 500 uM
Experimental: as §1

[2] = tested on: lymphocytes, monocytes, NKT cells, T cells, dendritic cells; details: in vivo, HED of 18 mg/kg and higher

SMILES	biologic half-life [1]	response of isolated splenocytes (Splenocytes)	response of ex vivo whole blood (Whole Blood)	effects on colon, pancreas or bone [2]
C[C@]12C=CC(=O)C=C1CC[C@@H]1[C@@H]2C(=O)C[C@@]2(C)[C@H]1CC[C@]2(O)C(=O)CO [prednisone]	about 20 hours			
C[C@@H]1C[C@H]2[C@@H]3CCC4=CC(=O)C=C[C@]4(C)[C@@]3(F)[C@@H](O)C[C@]2(C)[C@@]1(O)C(=O)CO [dexamethasone base, dexamethasone]		no response	no response	no effects
